Patent publication US6656695B2, “Biomap characterization of biologically active agents” (Bioseek, Inc., priority 2000, dated 2003)

Columns and labels:
HUVEC cells [1] = assay: optimized inflammatory assay combination: HUVEC treated with TNF-α+IFN-γ+IL-1, readout parameters by cell-based ELISA (biomap); parameters: species or system human; conditions: for activity (alteration of the biomap) in the optimized assay combination: HUVEC, TNF-α+IFN-γ+IL-1, 24 hours, 10 μM NHGA, 200 μM PDTC, 9 μM PD098059, PPM-18 2 μM, AG126 25 μM, p55-Fc 50 ng/ml; for cellular toxicity: either drug alone at higher concentrations (2-fold) than PPM-18 2 μM / AG126 25 μM
Experimental: Primary human umbilical vein endothelial cells (HUVEC) are used. Other cells that may replace HUVEC in the screen include primary microvascular endothelial cells, aortic or arteriolar endothelial cells or endothelial cell lines such as EAhy926 or E6-[…]-5-2G cells or human telomerase reverse transcriptase-expressing endothelial cells (Simmons, J. Immunol., 148:267, 1992; Rhim, Carcinogenesis 19:673, 1998; Yang, J. Biol. Chem. 274:26141, 1999). 2×10^4 cells/ml are cultured to confluence in EGM-2 (Clonetics). Other media that may replace EGM-2 include EGM (Clonetics) and Ham's F12K medium supplemented with 0.1 mg/ml heparin and 0.03-0.05 mg/ml endothelial cell growth supplement (ECGS) and 10% FBS, or medium M199 (Life Technologies, Inc.) containing 20% fetal bovine serum and 2 ng/ml basic fibroblast growth factor (Jaffe, J. Clin. Invest. 52:2745, 1973; Hoshi, PNAS 81:6413, 1984). The disease environment present in chronic inflammatory diseases, such as Crohn's disease, differs from the normal condition by increased presence of multiple biologically active agents including IL-1, TNF-α, and IFN-γ (Woywodt, 1994; Kakazu, 1999). Other biologically active agents that may be increased in chronic inflammatory disease environments include IL-4, IL-6, IL-8, IL-12, IL-13, IL-18, TGFbeta, and histamine, as well as activated leukocytes and their products (Daig, 1996, Gut 38:216; Woywodt, 1994, Eur. cytokine Netw. 5:387; Kakazu, 1999 Am J. Gastroenterol. 94:2149; Pizarro, 1999, J. Immunol. 162:6829; Monteleone, 1999, J. Immunol. 163:143; […] Enteral Nutr 23:S20; Beck, 1999, […]. Bowel Dis. 5:44). Optimized assay combinations will contain at least two, and preferably three, four or more of these biologically active agents. […] After 24 hours, cultures are washed and evaluated for the presence of the parameters ICAM-1 (1), VCAM-1 (2), E-selectin (3), IL-8 (4), CD31 (5), HLA-DR (6) and MIG (7) by cell-based ELISA as described (Melrose, J. Immunol. 161:2457, 1998). For this, plates are blocked with 1% Blotto for 1 hr, and treated with primary antibodies (obtained from Pharmingen and Becton Dickinson) at 1 ng/ml for 2 hr. After washing, secondary peroxidase-conjugated anti-mouse IgG antibody (Promega) at 1:2500 is applied for 45 min. After washing, TMB substrate (Kierkegaard & Perry) is added and color developed. Development is stopped by addition of H2SO4 and the absorbance at 450 nm (subtracting the background absorbance at 600 nm) is read with a Molecular Dynamics plate reader. The relative expression levels of each parameter are indicated by the OD at 450 nm shown along the y-axis. The mean +/- SD from triplicate samples is shown. […] Confluent cultures of HUVEC cells are treated with TNF-α (5 ng/ml)+IFN-γ (100 ng/ml)+IL-1 (1 ng/ml) in the presence or absence of neutralizing anti-TNF-α or control antibody (Goat anti-IgG). […] In FIG. 3A, the relative expression of each parameter is shown along the y-axis as average value of the OD measured at 450 nm of triplicate samples. The mean +/- SD from triplicate samples are shown. * indicates p<0.05 comparing results obtained with anti-TNF-α to the control. […] A color-coded representation of the biomaps developed from the data is shown. […] J. Physiol. 273(2 Pt 2):[…], 1997), the corticosteroids dexamethasone and prednisolone, echinacea, AA861 (Lee, J. Immunol. 158, 3401, 1997), apigenin ([…], Am. J. Pathol. 147:278, 1995), nordihydroguaiaretic acid (NHGA) (Brennen, Biochem. […] J. Immunol. 27:2172, 1997), pyrrolidine dithiocarbamate (PDTC) (Boyle, Circulation, 98, (19 Suppl):11282, 1998), PPM-18 (Yu, Biochem. […] Biol. Chem. 273:18165, 1998), AG126 (Novogrodsky, Science 264, 1319, 1994), and neutralizing anti-TNF-α antibody. Color-coded representations of the resulting biomaps are shown. Confluent cultures of HUVEC cells are treated with TNF-α (5 ng/ml)+IFN-γ (100 ng/ml)+IL-1 (1 ng/ml) in the presence or absence of agents or buffers at the concentrations indicated in Table 1. […]

HUVEC cells [2] = assay: multiplex (secondary) assay combinations: HUVEC with single pathway activators or media, biomaps by cell-based ELISA; parameters: species or system human; conditions: TNF-α, IFN-γ, IL-1 alone or combined; 20 μM AA861, 10 μM NHGA; FIG. 5
Experimental: Confluent cultures of HUVEC cells are treated with TNF-α (5 ng/ml), IFN-γ (100 ng/ml), IL-1 (20 ng/ml), the combination of TNF-α+IFN-γ+IL-1, or media (no cytokine) in the presence or absence of neutralizing anti-TNF-α, 20 μM AA861 or 10 μM NHGA. After 24 hours, cultures are washed and evaluated for the cell surface expression of ICAM-1 (1), VCAM-1 (2), E-selectin (3), IL-8 (4), and MIG (5) by cell-based ELISA performed as described in FIG. 1. A color-coded representation of the resulting biomaps derived from the data is shown in FIG. 5, coded as described in FIG. 2B.
Confirmation is performed by evaluating the test agent in assay combinations that include both physiologic and alternative pathway activators. […] After 24 hours, cultures are washed and evaluated for the cell surface expression of ICAM-1 (1), VCAM-1 (2), E-selectin (3), CD31 (4), and MIG (5) by cell-based ELISA performed as described in FIG. 1. […]
In FIG. 7B, confluent cultures of HUVEC cells are treated with TNF-α (5 ng/ml), IFN-γ (100 ng/ml), IL-1 (20 ng/ml), the combination of TNF-α+IFN-γ+IL-1, or media in the presence or absence of p55-Fc. After 24 hours, cultures are washed and evaluated for the cell surface expression of ICAM-1 (1), VCAM-1 (2), E-selectin (3), IL-8 (4), and MIG (5) by cell-based ELISA performed as described in FIG. 1. […]

| SMILES | activity (alteration of the biomap) in the optimized assay combination (HUVEC cells [1]) | cellular toxicity (HUVEC cells [1]) | cytokine signaling pathways targeted (HUVEC cells [2]) |
| --- | --- | --- | --- |
| N#CC(C#N)=Cc1ccc([N+](=O)[O-])c(O)c1 [AG126] | active compounds | cellular toxicity |  |
| S=C(S)N1CCCC1 [PDTC, pyrrolidine dithiocarbamate] | altered biomaps |  |  |
| O=C(NC1=CC(=O)c2ccccc2C1=O)c1ccccc1 [PPM-18] | active compounds | cellular toxicity |  |
| COc1cccc(-c2cc(=O)c3ccccc3o2)c1N [PD098059] | altered biomaps |  |  |
| CC(Cc1ccc(O)c(O)c1)C(C)Cc1ccc(O)c(O)c1 (centres unmarked) [NHGA, nordihydroguaiaretic acid] | altered biomaps |  | target multiple cytokine signaling pathways |
